Structures can show the parent of a compound that is named as a salt.
molecular target: TDP-43 binding to purified human brain membranes (Homo sapiens, UniProt Q13148); assay: Inhibition of TDP-43 binding to purified human brain cell membranes (ELISA); settings: TDP43/Membrane Activity (IC-50), TDP-43, purified human brain membranes
Description: Purified human brain cell membranes were prepared by differential centrifugation as follows. Five grams of frozen human brain postmortem tissue (obtained from University of Kentucky Alzheimer's Disease Center Tissue Bank) was homogenized in 50 ml HEPES-Buffered sucrose (0.32M sucrose, 4 mM HEPES pH7.4, protease inhibitors) with a motor driven glass-teflon homogenizer. After removing nuclear and cell debris by centrifugation of homogenates at 1,000×g for 10 min at 4 degree Celsius, post-nuclear supernatant was centrifuged at 100,000×g for 30 minutes to yield the crude membrane pellet. Crude membrane pellet was re-suspended in 0.32M sucrose, then centrifuged again at 100,000×g for 30 minutes to yield washed membrane pellet. Membrane pellet was resuspended in sterile PBS (pH7.4), quickly frozen, and kept in aliquots at −80 degrees Celsius. This preparation contains human brain cell membranes. Protein concentration was measured with BCA protein assay kit (Pierce Cat. No. 23227). Purified brain membranes were diluted to 0.01 mg/ml in PBS (pH 7.4) and then added to a 96 well polystyrene ELISA plate (NUNC Cat. No. 449824; 100 μl per well). Plates were incubated Over Night (ON) at 4 degrees Celsius. Following the incubation, the plate was washed consecutively, by immersion, with de-ionized water and PBS (pH 7.4). The ELISA plate was then blocked with nonfat milk (2%, 200 μl per well) for 2 hours at Room Temperature (RT). Following blocking, the plate was washed with de-ionized water then PBS (pH 7.4). GBAPs were dissolved and diluted in PBS (pH 6.5, supplemented with 0.1% BSA) at desired concentrations, added to the ELISA plates coated with brain membranes (100 μl per well) and incubated for 2 hours at RT with gentle shaking. Following incubation, the plate was washed with de-ionized water and three times with PBS (pH 6.5) plus Tween. Bound GBAP was detected by a monoclonal antibody specific for that GBAP, followed by incubation with secondary antibody conjugated to horseradish peroxidase (HRP). Antibody was diluted in PBS (pH6.5 supplemented with 1% BSA). Following each incubation with antibody, the plate was washed with de-ionized water and three times with PBS (pH6.5) wash buffer containing 0.1% Tween. The peroxidase substrate chromogen, TMB (Dako Cat. No. S1599) was added (100 μl per well) to the ELISA plate and incubated at room temperature. After 5 minutes ELISA Stop Solution (hydrochloric acid 1N, sulfuric acid 3N) was added (100 μl per well) to stop the peroxidase catalyzed colorimetric reaction. The Optical Density of the samples was measured at 450 nm using an ELISA plate reader (BioTek Synergy H1). Following color development, the % inhibition compared to control was determined. IC-50s were calculated using GraphPad Prism software.
The assay was performed as described in Example 49, with the following modifications. Following to coating the plates with purified human brain cell membranes, plates were washed as described. The compounds were dissolved in DMSO at 10 mM final concentration and further diluted prior to assay. DMSO concentration in the screening well was up to 2%. Individual compounds were co-incubated with TDP-43 on plates coated with brain membranes. TDP43 from R&D System (Cat. No. AP-190) was quickly frozen and kept in aliquots at −80 degrees Celsius. TDP-43 dissolved in PBS (pH 6.5, supplemented with BSA, 0.1%) was added to the ELISA plate (100 μl per well) and incubated for 2 hours at RT with gentle shaking. Following the incubation, the plate was washed with de-ionized water and three times with PBS (pH 6.5) plus Tween. Bound TDP-43 was detected by Anti-TDP43 Monoclonal Antibody (R&D System Cat. No. MAB7778), followed by secondary anti-IgG antibody conjugated to HRP (R&D System, Cat. No. HAF007). Following to color development with TMB, as described in Example 49, the Optical Density of the samples was measured at 450 nm using an ELISA plate reader. […]

Sequence of TDP-43 binding to purified human brain membranes (Q13148 whole entry): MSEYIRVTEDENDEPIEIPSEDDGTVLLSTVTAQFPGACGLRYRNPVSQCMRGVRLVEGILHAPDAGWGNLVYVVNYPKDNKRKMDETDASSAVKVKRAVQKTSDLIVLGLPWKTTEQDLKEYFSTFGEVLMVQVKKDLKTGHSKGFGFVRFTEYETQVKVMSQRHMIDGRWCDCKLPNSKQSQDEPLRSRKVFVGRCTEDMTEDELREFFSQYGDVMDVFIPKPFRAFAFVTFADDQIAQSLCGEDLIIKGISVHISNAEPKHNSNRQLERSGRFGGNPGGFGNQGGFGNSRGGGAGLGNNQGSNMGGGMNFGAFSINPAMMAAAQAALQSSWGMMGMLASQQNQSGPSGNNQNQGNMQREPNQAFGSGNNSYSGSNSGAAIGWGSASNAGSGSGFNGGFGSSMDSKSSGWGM

SMILES | IC50 [µM]
Clc1ccc2c(N/N=C/c3ccc(-n4cccn4)cc3)ccnc2c1 [Compound 3, (E)-4-((E)-(4-(1H-pyrazol-1-yl)benzylidene)hydrazono)-7-chloro-1,4-dihydroquinoline] | 6.57
Fc1ccc2c(N/N=C/c3ccc(-n4ccnc4)cc3)ccnc2c1 [Compound 5, (E)-4-(2-(4-(1H-imidazol-1-yl)benzylidene)hydrazinyl)-7-fluoroquinoline] | 14.1
C(=N\Nc1ccc2c3c(cccc13)CC2)/c1ccc(-n2ccnc2)cc1 [Compound 8, (E)-1-(4-((2-(1,2-dihydroacenaphthylen-5-yl)hydrazineylidene)methyl)phenyl)-1H-imidazole] | 25.2
Clc1ccc2c(N/N=C/c3ccc(-n4ccnc4)nc3)ccnc2c1 [Compound 14, (E)-4-(2-((6-(1H-imidazol-1-yl)pyridin-3-yl)methylene)hydrazineyl)-7-chloroquinoline hydrochloride] | 4.01
Cc1ncn(-c2ccc(/C=N\Nc3ncnc4cc(Cl)ccc34)cn2)c1C [Compound 15, 7-chloro-4-(2-((6-(4,5-dimethyl-1H-imidazol-1-yl)pyridin-3-yl)methylene)hydrazineyl)quinazoline hydrochloride] | 3.01
C/C(=N\Nc1ncnc2cc(Cl)ccc12)c1ccc(-n2cnc(C)c2C)nc1 [Compound 16, 7-chloro-4-(2-(1-(6-(4,5-dimethyl-1H-imidazol-1-yl)pyridin-3-yl)ethylidene)hydrazineyl)quinazoline phosphate] | 2.11
C/C(=N\Nc1ncnc2cc(Cl)ccc12)c1ccc(-n2cc[n+](C)c2)nc1 [Compound 17, (E)-1-(5-(1-(2-(7-chloroquinazolin-4-yl)hydrazineylidene)ethyl)pyridin-2-yl)-3-methyl-1H-imidazol-3-ium iodide phosphoric acid salt] | 22.5
CC(=NNc1ccnc2cc(Cl)ccc12)c1ccc(-n2cnc(C)c2C)nc1 [Compound 22, 7-chloro-4-(2-(1-(6-(4,5-dimethyl-1H-imidazol-1-yl)pyridin-3-yl)ethylidene)hydrazineyl)quinoline] | 12.2
Cc1ncn(-c2ccc(Nc3ncnc4cc(Cl)ccc34)cn2)c1C [Compound 25, 7-chloro-N-(6-(4,5-dimethyl-1H-imidazol-1-yl)pyridin-3-yl)quinazolin-4-amine] | 11.5
C/C(=N\Nc1ncnc2cc(F)ccc12)c1ccc(-n2cc[n+](C)c2)nc1 [Compound 26, (E)-1-(5-(1-(2-(7-fluoroquinazolin-4-yl)hydrazineylidene)ethyl)pyridin-2-yl)-3-methyl-1H-imidazol-3-ium phosphoric acid salt] | 27.2
Clc1ccc2c(Nc3ccc(-n4cncn4)nc3)ncnc2c1 [Compound 34, N-(6-(1H-1,2,4-triazol-1-yl)pyridin-3-yl)-7-chloroquinazolin-4-amine phosphoric acid salt] | 3.67
Fc1cc(/C=N/Nc2ccnc3cc(Cl)ccc23)ccc1-n1ccnc1 [Compound 35, (E)-7-chloro-4-(2-(3-fluoro-4-(1H-imidazol-1-yl)benzylidene)hydrazineyl)quinoline hydrochloride] | 13.1
CC(=NNc1ccnc2cc(Cl)ccc12)c1ccc(-n2ccnc2)cc1 [Compound 36, 4-(2-(1-(4-(1H-imidazol-1-yl)phenyl)ethylidene)hydrazineyl)-7-chloroquinoline phosphate] | 48.6
Clc1ccc2c(N/N=C/c3ccc(-n4ccnc4)cc3)ccnc2c1 [Compound 38, 4-(2-(4-(1H-imidazol-1-yl)benzylidene)hydrazineyl)-7-chloroquinoline dihydrochloride] | 6.17
Cc1ncn(-c2ncc(Nc3ncnc4cc(Cl)ccc34)cc2O)c1C [Compound 40, 5-((7-chloroquinazolin-4-yl)amino)-2-(4,5-dimethyl-1H-imidazol-1-yl)pyridin-3-ol phosphoric acid salt] | 5.28
Clc1ccc2c(Nc3ccc(-n4cncn4)nc3)ccnc2c1 [Compound 44, N-(6-(1H-1,2,4-triazol-1-yl)pyridin-3-yl)-7-chloroquinolin-4-amine] | 26.2

same assay, conditions: TDP-43, purified human brain membranes; read-out: TDP43/Membrane Activity (IC-50)

SMILES | IC50 [µM]
Cc1cc(-n2ccnc2)ccc1/C=N/Nc1ccnc2cc(Cl)ccc12 [Compound 1, (E)-4-((E)-(4-(1H-imidazol-1-yl)-2-methylbenzylidene)hydrazono)-7-chloro-1,4-dihydroquinoline] | 3.42
C/C(=N\Nc1ncnc2cc(Cl)ccc12)c1ccc(-n2cc(C)nc2C)nc1 [Compound 18, (E)-7-chloro-4-(2-(1-(6-(2,4-dimethyl-1H-imidazol-1-yl)pyridin-3-yl)ethylidene)hydrazineyl)quinazoline phosphoric acid salt] | 9.28
C/C(=N\Nc1ncnc2cc(F)ccc12)c1ccc(-n2cnc(C)c2C)nc1 [Compound 21, (E)-4-(2-(1-(6-(4,5-dimethyl-1H-imidazol-1-yl)pyridin-3-yl)ethylidene)hydrazineyl)-7-fluoroquinazoline] | 7.12
C/C(=N\Nc1nncc2cc(Cl)ccc12)c1ccc(-n2cc(C)nc2C)nc1 [Compound 24, (E)-6-chloro-1-(2-(1-(6-(2,4-dimethyl-1H-imidazol-1-yl)pyridin-3-yl)ethylidene)hydrazineyl)phthalazine] | 4
C/C(=N\Nc1ncnc2cc(Cl)ccc12)c1ccc(-n2cc(C)nc2C)nc1 [Compound 27, (E)-7-chloro-4-(2-(1-(6-(2,4-dimethyl-1H-imidazol-1-yl)pyridin-3-yl)ethylidene)hydrazineyl)quinazoline hydrochloride] | 2.98
CC(=NNc1ncnc2cc(Cl)ccc12)c1ccnc(-n2cnc(C)c2C)c1 [Compound 28, 7-chloro-4-(2-(1-(2-(4,5-dimethyl-1H-imidazol-1-yl)pyridin-4-yl)ethylidene)hydrazineyl)quinazoline] | 8.93
Clc1ccc2c(Nc3ccc(-n4ccnc4)nc3)ncnc2c1 [Compound 41, N-(6-(1H-imidazol-1-yl)pyridin-3-yl)-7-chloroquinazolin-4-amine] | 8.32
